Data as given in PubChem BioAssay (NCI).
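Briefly, cells in 96-well plates were exposed to five compound concentrations for 48 h, and endpoints were estimated by linear interpolation. The concentration for 50% growth inhibition is given as GI50. TGI marks complete inhibition of growth.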

Legend:
Assay in all cases: growth of human tumour cells (NCI), 48 h
KM12 colon = tested on: KM12 colon
HL-60(TB) leukemia = tested on: HL-60(TB) leukemia
BT-549 breast = tested on: BT-549 breast
NCI-H23 lung = tested on: NCI-H23 lung
ACHN renal = tested on: ACHN renal
786-0 renal = tested on: 786-0 renal
SK-MEL-5 melanoma = tested on: SK-MEL-5 melanoma
HT29 colon = tested on: HT29 colon
SK-MEL-2 melanoma = tested on: SK-MEL-2 melanoma
SNB-75 CNS = tested on: SNB-75 CNS
UACC-257 melanoma = tested on: UACC-257 melanoma
UACC-62 melanoma = tested on: UACC-62 melanoma
HS 578T breast = tested on: HS 578T breast
SK-OV-3 ovarian = tested on: SK-OV-3 ovarian
PC-3 prostate = tested on: PC-3 prostate
COLO 205 colon = tested on: COLO 205 colon
HOP-62 NSCLC = tested on: HOP-62 NSCLC
SF-539 CNS = tested on: SF-539 CNS
IGROV1 ovarian = tested on: IGROV1 ovarian
MCF7 breast = tested on: MCF7 breast
SK-MEL-28 melanoma = tested on: SK-MEL-28 melanoma
NCI-H522 lung = tested on: NCI-H522 lung
NCI-H226 lung = tested on: NCI-H226 lung
LOX IMVI melanoma = tested on: LOX IMVI melanoma
RPMI-8226 leukemia = tested on: RPMI-8226 leukemia
SF-268 CNS = tested on: SF-268 CNS
HCT-15 colon = tested on: HCT-15 colon
SR leukemia = tested on: SR leukemia
HOP-92 NSCLC = tested on: HOP-92 NSCLC
RXF 393 renal = tested on: RXF 393 renal
UO-31 renal = tested on: UO-31 renal
SF-295 CNS = tested on: SF-295 CNS
SNB-19 CNS = tested on: SNB-19 CNS
MDA-MB-435 = tested on: MDA-MB-435
CCRF-CEM leukemia = tested on: CCRF-CEM leukemia
TK-10 renal = tested on: TK-10 renal
HCC-2998 colon = tested on: HCC-2998 colon
MOLT-4 leukemia = tested on: MOLT-4 leukemia
A498 renal = tested on: A498 renal
OVCAR-4 ovarian = tested on: OVCAR-4 ovarian
CAKI-1 renal = tested on: CAKI-1 renal
OVCAR-8 ovarian = tested on: OVCAR-8 ovarian
DU-145 prostate = tested on: DU-145 prostate
K-562 leukemia = tested on: K-562 leukemia
SW-620 colon = tested on: SW-620 colon
EKVX NSCLC = tested on: EKVX NSCLC
MDA-MB-231 breast = tested on: MDA-MB-231 breast
NCI-H460 lung = tested on: NCI-H460 lung
M14 melanoma = tested on: M14 melanoma
NCI/ADR-RES ovarian = tested on: NCI/ADR-RES ovarian
MALME-3M melanoma = tested on: MALME-3M melanoma
T-47D breast = tested on: T-47D breast
A549 NSCLC = tested on: A549 NSCLC
OVCAR-5 ovarian = tested on: OVCAR-5 ovarian
U251 CNS = tested on: U251 CNS
SN12C renal = tested on: SN12C renal

Question: `CNC[C@@H](NC(=O)c1ccc(-c2nc([C@H]3CC[C@H](O)[C@@H](F)C3)cnc2N)cc1F)c1cc(F)cc(Br)c1` was tested. Which GI50 (KM12 colon) did it give?
Answer: 16 µM

Question: And the TGI (KM12 colon)?
Answer: 31.3 µM

Question: What about the GI50 (HL-60(TB) leukemia) of the same compound?
Answer: 13.6 µM

Question: And the TGI (HL-60(TB) leukemia)?
Answer: 34.2 µM

Question: And the GI50 (BT-549 breast)?
Answer: 11.2 µM

Question: What about the TGI (BT-549 breast) of the same compound?
Answer: 25.3 µM

Question: And the GI50 (NCI-H23 lung)?
Answer: 17.8 µM

Question: And the TGI (NCI-H23 lung)?
Answer: 35.3 µM

Question: What about the GI50 (ACHN renal) of the same compound?
Answer: 15 µM

Question: And the TGI (ACHN renal)?
Answer: 29.1 µM

Question: What about the GI50 (786-0 renal) of the same compound?
Answer: 14 µM

Question: What about the TGI (786-0 renal) of the same compound?
Answer: 29.5 µM

Question: What about the GI50 (SK-MEL-5 melanoma) of the same compound?
Answer: 15.2 µM

Question: What about the TGI (SK-MEL-5 melanoma) of the same compound?
Answer: 29.3 µM

Question: And the GI50 (HT29 colon)?
Answer: 13.2 µM

Question: What about the TGI (HT29 colon) of the same compound?
Answer: 27 µM

Question: And the GI50 (SK-MEL-2 melanoma)?
Answer: 14 µM

Question: And the TGI (SK-MEL-2 melanoma)?
Answer: 28.7 µM

Question: And the GI50 (SNB-75 CNS)?
Answer: 4.09 µM

Question: And the TGI (SNB-75 CNS)?
Answer: 23.5 µM

Question: What about the GI50 (UACC-257 melanoma) of the same compound?
Answer: 15 µM

Question: What about the TGI (UACC-257 melanoma) of the same compound?
Answer: 30.5 µM

Question: And the GI50 (UACC-62 melanoma)?
Answer: 17.4 µM

Question: And the TGI (UACC-62 melanoma)?
Answer: 32.8 µM

Question: And the GI50 (HS 578T breast)?
Answer: 12.6 µM

Question: What about the TGI (HS 578T breast) of the same compound?
Answer: 39.4 µM

Question: What about the GI50 (SK-OV-3 ovarian) of the same compound?
Answer: 17 µM

Question: What about the TGI (SK-OV-3 ovarian) of the same compound?
Answer: 31.3 µM

Question: What about the GI50 (PC-3 prostate) of the same compound?
Answer: 12.3 µM

Question: And the TGI (PC-3 prostate)?
Answer: 25.5 µM

Question: What about the GI50 (COLO 205 colon) of the same compound?
Answer: 13 µM

Question: And the TGI (COLO 205 colon)?
Answer: 27 µM

Question: What about the GI50 (HOP-62 NSCLC) of the same compound?
Answer: 14.3 µM

Question: What about the TGI (HOP-62 NSCLC) of the same compound?
Answer: 28.7 µM

Question: And the GI50 (SF-539 CNS)?
Answer: 15.2 µM

Question: And the TGI (SF-539 CNS)?
Answer: 29.1 µM

Question: And the GI50 (IGROV1 ovarian)?
Answer: 16 µM

Question: What about the TGI (IGROV1 ovarian) of the same compound?
Answer: 34 µM

Question: And the GI50 (MCF7 breast)?
Answer: 18.3 µM

Question: What about the TGI (MCF7 breast) of the same compound?
Answer: 34.5 µM

Question: And the GI50 (SK-MEL-28 melanoma)?
Answer: 17 µM

Question: What about the TGI (SK-MEL-28 melanoma) of the same compound?
Answer: 32.4 µM

Question: And the GI50 (NCI-H522 lung)?
Answer: 16.6 µM

Question: And the TGI (NCI-H522 lung)?
Answer: 32.4 µM

Question: What about the GI50 (NCI-H226 lung) of the same compound?
Answer: 16.5 µM

Question: And the TGI (NCI-H226 lung)?
Answer: 35.3 µM

Question: What about the GI50 (LOX IMVI melanoma) of the same compound?
Answer: 15 µM

Question: And the TGI (LOX IMVI melanoma)?
Answer: 29.4 µM

Question: And the GI50 (RPMI-8226 leukemia)?
Answer: 11.2 µM

Question: And the TGI (RPMI-8226 leukemia)?
Answer: 30.8 µM

Question: And the GI50 (SF-268 CNS)?
Answer: 12.6 µM

Question: What about the TGI (SF-268 CNS) of the same compound?
Answer: 30.2 µM

Question: What about the GI50 (HCT-15 colon) of the same compound?
Answer: 16.5 µM

Question: What about the TGI (HCT-15 colon) of the same compound?
Answer: 31.8 µM

Question: What about the GI50 (SR leukemia) of the same compound?
Answer: 13.1 µM

Question: What about the TGI (SR leukemia) of the same compound?
Answer: 35.3 µM

Question: What about the GI50 (HOP-92 NSCLC) of the same compound?
Answer: 2.57 µM

Question: What about the TGI (HOP-92 NSCLC) of the same compound?
Answer: 16.5 µM

Question: What about the GI50 (RXF 393 renal) of the same compound?
Answer: 6.28 µM

Question: And the TGI (RXF 393 renal)?
Answer: 21.1 µM

Question: And the GI50 (UO-31 renal)?
Answer: 12.3 µM

Question: What about the TGI (UO-31 renal) of the same compound?
Answer: 26.4 µM

Question: And the GI50 (SF-295 CNS)?
Answer: 17.1 µM

Question: And the TGI (SF-295 CNS)?
Answer: 32.5 µM

Question: And the GI50 (SNB-19 CNS)?
Answer: 17.7 µM

Question: What about the TGI (SNB-19 CNS) of the same compound?
Answer: 36 µM

Question: And the GI50 (MDA-MB-435)?
Answer: 16.1 µM

Question: And the TGI (MDA-MB-435)?
Answer: 30.9 µM

Question: And the GI50 (CCRF-CEM leukemia)?
Answer: 16 µM

Question: What about the TGI (CCRF-CEM leukemia) of the same compound?
Answer: 39.1 µM

Question: And the GI50 (TK-10 renal)?
Answer: 12.2 µM

Question: And the TGI (TK-10 renal)?
Answer: 28.9 µM

Question: And the GI50 (HCC-2998 colon)?
Answer: 17.3 µM

Question: And the TGI (HCC-2998 colon)?
Answer: 31.8 µM

Question: And the GI50 (MOLT-4 leukemia)?
Answer: 15 µM

Question: What about the TGI (MOLT-4 leukemia) of the same compound?
Answer: 49.2 µM

Question: What about the GI50 (A498 renal) of the same compound?
Answer: 13.1 µM

Question: And the TGI (A498 renal)?
Answer: 26.7 µM

Question: What about the GI50 (OVCAR-4 ovarian) of the same compound?
Answer: 18.1 µM

Question: What about the TGI (OVCAR-4 ovarian) of the same compound?
Answer: 50.2 µM

Question: And the GI50 (CAKI-1 renal)?
Answer: 11.6 µM

Question: And the TGI (CAKI-1 renal)?
Answer: 28.3 µM

Question: And the GI50 (OVCAR-8 ovarian)?
Answer: 17.3 µM

Question: What about the TGI (OVCAR-8 ovarian) of the same compound?
Answer: 35 µM

Question: What about the GI50 (DU-145 prostate) of the same compound?
Answer: 17.2 µM

Question: What about the TGI (DU-145 prostate) of the same compound?
Answer: 32.8 µM

Question: What about the GI50 (K-562 leukemia) of the same compound?
Answer: 13.6 µM

Question: What about the TGI (K-562 leukemia) of the same compound?
Answer: 38.2 µM

Question: What about the GI50 (SW-620 colon) of the same compound?
Answer: 18.4 µM

Question: What about the TGI (SW-620 colon) of the same compound?
Answer: 34.5 µM

Question: And the GI50 (EKVX NSCLC)?
Answer: 16.1 µM

Question: What about the TGI (EKVX NSCLC) of the same compound?
Answer: 33.2 µM

Question: What about the GI50 (MDA-MB-231 breast) of the same compound?
Answer: 12.7 µM

Question: And the TGI (MDA-MB-231 breast)?
Answer: 27.3 µM

Question: What about the GI50 (NCI-H460 lung) of the same compound?
Answer: 17.7 µM

Question: What about the TGI (NCI-H460 lung) of the same compound?
Answer: 33.5 µM

Question: What about the GI50 (M14 melanoma) of the same compound?
Answer: 15.2 µM

Question: What about the TGI (M14 melanoma) of the same compound?
Answer: 31.1 µM

Question: What about the GI50 (NCI/ADR-RES ovarian) of the same compound?
Answer: 38.9 µM

Question: What about the TGI (NCI/ADR-RES ovarian) of the same compound?
Answer: > 100 µM

Question: And the GI50 (MALME-3M melanoma)?
Answer: 13.9 µM

Question: What about the TGI (MALME-3M melanoma) of the same compound?
Answer: 28.9 µM

Question: What about the GI50 (T-47D breast) of the same compound?
Answer: 18.3 µM

Question: What about the TGI (T-47D breast) of the same compound?
Answer: 36.2 µM

Question: What about the GI50 (A549 NSCLC) of the same compound?
Answer: 14.3 µM

Question: And the TGI (A549 NSCLC)?
Answer: 30.1 µM

Question: And the GI50 (OVCAR-5 ovarian)?
Answer: 16.4 µM

Question: And the TGI (OVCAR-5 ovarian)?
Answer: 40.2 µM

Question: What about the GI50 (U251 CNS) of the same compound?
Answer: 14.6 µM

Question: And the TGI (U251 CNS)?
Answer: 32.4 µM

Question: What about the GI50 (SN12C renal) of the same compound?
Answer: 16.5 µM

Question: What about the TGI (SN12C renal) of the same compound?
Answer: 32.9 µM
